Test results published in publication PMC5618191 (Toxins, 2017).
Like-named read-outs stand apart in the source and are kept apart here.

Experiments:
[1] = test system: KB-3-1-derived tumor xenografts; assay: KB-3-1 xenograft mouse model; type: in vivo, CB-17/SCID mice
Procedure: For the allograft experiment, 4 × 10^5 CT-26 cells were resuspended in 50 µL RPMI medium and injected subcutaneously into the right flank of eight, 6–8 weeks old, male BALB/c mice that were obtained from Harlan Laboratories (San Pietro al Natisone, Italy). Likewise, in the xenograft experiment, 1 × 10^6 KB-3-1 cells in 50 µL RPMI medium were injected subcutaneously into the right flank of eight, 6–8 weeks old, male CB-17/IcrHanHsd-Prkdc severe combined immunodeficiency (SCID) mice. Of each group, four animals were randomly assigned to the control or to the treatment group. […] All animals were kept under pathogen-free conditions and all procedures were performed in a laminar flow hood. Effects of the treatment were assessed by daily recording of tumor size with a microcaliper and parameters indicating the animals’ overall health condition (e.g., body weight, fatigue, grooming, ragged coat, food and fluid consumption). Tumor volumes (mm^3) were calculated using the formula: (length × width^2)/2. […] The tumor mass was weighed and organs and tissues for immunohistochemical experiments were fixed in 4% formalin/PBS (Roti®-Histofix 4%, Roth, Karlsruhe, Germany) or shock-frozen in liquid nitrogen and stored at −80 °C until the samples were prepared for LC-MS/MS analysis. The experiments were approved by the ethics committee of the Austrian Federal Ministry of Science, Research, and Economy (BMWF-66.009/0084-II/3b/2013, date of approval: 5 September 2013) and performed in line with the Arrive guidelines for animal care and protection and with guidelines from the Austrian Animal Science Association and from the Federation of European Laboratory Animal Science Associations (FELASA).
From each mouse from both the control (n = 4) and the treatment group (n = 4), tissue samples were formalin-fixed, paraffin-embedded and used to prepare serial 3 µm sections. Then, slices were deparaffinized and rehydrated. To evaluate the percentages of interphase/resting, mitotic and dead (apoptotic/necrotic) cell fractions in tumor specimens, sections were stained with hematoxylin and eosin (H/E) by means of standard protocols. Numbers of the three cell fractions were analyzed in a blinded setup in at least four images of H/E-stained tumor sections, taken under a 40 × objective microscope lens. In addition, for the quantification of areas of dead tumor tissue in whole tumor sections, the H/E-stained slides were scanned with a Pannoramic MIDI automated slide scanner (3[…], Budapest, Hungary) and evaluated using Definiens’ TissueStudio® 4.0 (Definiens®, Munich, Germany) software and Pannoramic Viewer (3[…]) software. To evaluate the fraction of apoptotic cells in tumor sections a terminal deoxynucleotidyl transferase (TdT) deoxyuridine triphosphate (dUTP) nick end labeling (TUNEL) assay was performed applying the In Situ Cell Death Kit TMR (red) (Roche Diagnostics, Mannheim, Germany) according to the manufacturer’s protocol. Afterwards, slides were covered with Vectashield anti-fade mounting medium with DAPI (H-1200, Vector Laboratories, Burlingame, CA, USA). Slides were protected from light until they were scanned with a Pannoramic MIDI automated slide scanner (3[…]) and analyzed via digital image analysis software (Definiens’ TissueStudio® 4.0, Definiens®). In order to visualize the proliferative cell fraction (cells in the interphase or M-phase) of tumors, KB-3-1 tumor sections were stained with the Ki-67 (clone MiB-1) antibody from DAKO (1:100; Glostrup, Denmark) and for CT-26 tumor sections with Ki-67 (1:100; D3B5, rabbit, Cell Signaling, Danvers, USA). The primary antibody was incubated for 30 min at room temperature in a humid chamber and after rinsing the slides for 3 min in PBS + 0.1% Tween, the UltraVision LP detection system was applied according to the manufacturer’s instructions (Thermo Fisher Scientific, Massachusetts, MA, USA). Sections were counterstained with hematoxylin. […]

[2] = test system: KB-3-1 cervix carcinoma cells; assay: Cell viability assay (MTT, 72 h); type: cell-based, human
Procedure: For the cell lines KB-3-1 and SW480 2 × 10^3 cells, for NIH/3T3, CT-26, HaCaT, and GH354 cells 3 × 10^3 cells and for ME-180 and SW620 cells 4 × 10^3 cells were seeded into 96-well pates and incubated at 37 °C (5% CO2) overnight. […] For higher cell confluency, NIH/3T3, CT-26, HaCaT, KB-3-1, and SW480 cells were grown to a cell density of approximately 50–60% before treatment. […] The percentage of viable cells was detected after incubation with 3-(4,5-dimethylthiazol-2-yl)-2,5-diphenyltetrazolium bromide (MTT) at 37 °C for 1–4 h, depending on the cell line, according to the user manual (EZ4U, Biomedica, Vienna, Austria). […] All experiments were conducted using full-growth media with 10% FBS in triplicate and repeated three times. The cell confluency was analyzed by Image J 1.50i (NIH, New York, NY, USA).

[3] = KB-3-1, sparse (5–10% confluency)

beauvericin
Mean tumor weight lowered ([1]; 5 mg/kg bw/day, day 16, vs control, p = 0.152): 31.2%
Reduction in tumor volume ([1]; 5 mg/kg bw/day, two cycles, day 16): 31.3%
Percentages of apoptotic/necrotic cells within viable areas (H/E) ([1]; treated vs control): almost no difference
Increase of TUNEL-positive cells ([1]; treated vs control, p = 0.143): 1.5 fold
Increase of proportion of necrotic areas in H/E-stained whole tumor sections ([1]; treated vs control, significant): 34.2%
Ki-67-positive cells ([1]; treatment group, tumor sections, control 99.5 ± 0.6%): 98.8 ± 0.6%
Mitotic cells in H/E-stained tumor sections ([1]; treatment group, control 1.5 ± 0.4%): 1.3 ± 0.3%
IC50 ([2]; KB-3-1, higher density (50–60% confluency), read-out: IC50 value): 4.3 µM
Mean IC25 ± SD [2, 3]: 2.6 ± 0.9 µM
Mean IC75 ± SD [2, 3]: 3.6 ± 0.9 µM
IC50 ([2]; KB-3-1, sparse (5–10% confluency), read-out: Mean IC50 ± SD): 3.1 ± 0.7 µM
